# Results from ChEMBL document CHEMBL1143192, “Anti-HIV-1 entry optimization of novel imidazopiperidine-tropane CCR5 antagonists” (Bioorg Med Chem Lett, 2008).
# What was measured:
# Format in all cases: ADME, organism-based
# [1] = AUC in rat at 5 mg/kg, iv; design: dose 5 mg/kg, route intravenous; details: plasma
# [2] = Clearance in rat at 5 mg/kg, iv; design: dose 5 mg/kg, route intravenous; details: in vivo
# [3] = Half life in rat at 5 mg/kg, iv; design: dose 5 mg/kg, route intravenous; details: in vivo
# [4] = Cmax in rat at 30 mg/kg, po; design: dose 30 mg/kg, route oral; details: in vivo
# [5] = AUC in rat at 30 mg/kg, po; design: dose 30 mg/kg, route oral; details: plasma
# [6] = Half life in rat at 30 mg/kg, po; design: dose 30 mg/kg, route oral; details: in vivo
# [7] = Oral bioavailability in rat at 30 mg/kg; details: in vivo
# [8] = Cmax in rat at 5 mg/kg, iv; design: dose 5 mg/kg, route intravenous; details: in vivo
compound,measurement,setting,value
CC(=O)N1CCc2c(nc(C)n2[C@@H]2C[C@H]3CC[C@@H](C2)N3CCCN(C(=O)Nc2ccc(C(F)(F)F)cc2)c2ccccc2)C1,AUC,[1],2890 ng·h/mL
same,clearance,[2],28.8 mL/min/kg
same,half-life,[3],642 min
same,Cmax,[4],540 ng/mL
same,AUC,[5],8990 ng·h/mL
same,half-life,[6],432 min
same,bioavailability,[7],52%
same,Cmax,[8],860 ng/mL
